According to ChEMBL document CHEMBL1151349, “The antineoplastic quassinoids of Simaba cuspidata spruce and Ailanthus grandis Prain” (1980):
The source made the active and inactive calls. The rule behind the calls is not given here.

How the values were obtained:
[1] = system: P388; test: Antineoplastic activity against mouse P388 cells; assay type: functional
[2] = system: P388; test: In vivo antineoplastic activity against mouse P388 cells upto 2.0 mg/kg; assay type: functional, organism-based; design: dose 2 mg/kg
[3] = system: P388; test: In vivo antineoplastic activity against mouse P388 cells assessed as increase in survival time at 0.08 to 0.60 mg/kg; assay type: functional; details: dose mg/kg 0.08-0.60

Structure (SMILES)	GI [1] [µg/mL]	Activity [2]	Activity [1]	Activity [3] [%]
C/C=C(/C)C(=O)O[C@@H]1[C@H]2C(C)=C[C@H](O)[C@@H](O)[C@]2(C)[C@H]2[C@@]3(O)OC[C@@]24[C@@H]1OC(=O)C[C@H]4[C@@H](C)[C@H]3O	0.24	inactive		
CC[C@@](C)(OC(C)=O)C(=O)O[C@H]1C(=O)O[C@@H]2C[C@H]3C(C)=C[C@H](O)[C@@H](O)[C@]3(C)[C@H]3[C@@]4(O)OC[C@]32[C@@H]1[C@@H](C)[C@H]4O			inactive	
C/C=C(/C)C(=O)O[C@@H]1[C@H]2C(C)=CC(=O)[C@@H](O)[C@]2(C)[C@H]2[C@@]3(O)OC[C@@]24[C@@H]1OC(=O)C[C@H]4[C@@H](C)[C@H]3O	<0.01			34
